According to PubChem BioAssay AID624258 (Broad Institute, 2012):
Activity calls are given as the source filed them. How the calls were made is not given here.

System: S. cerevisiae SKN7-toxicity growth rescue, plate reader
Assay: Yeast SKN7 toxicity growth rescue counterscreen, Saccharomyces cerevisiae, plate reader, dose confirmatory (AID 624258);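 further: growth read after three days of incubation at 30 °C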

Row | Compound | AC40
1 | CC(=O)C1CCC2C3CC=C4CC(SC(=N)N)CCC4(C)C3CCC12C (configuration not stated) | 1.66 µM
2 | Cc1cc(Cl)ccc1OCC(=O)NCCCCc1ccccc1 | 8.43 µM
3 | COc1cccc(Oc2cncnc2-c2ccc(OC)cc2O)c1 | 18.9 µM
4 | O=C(CSc1ccc(-c2ccccn2)nn1)NC1CCCCC1 | 16.1 µM
5 | CCCCCCCCNC(=O)/C(C#N)=C/c1ccccc1[N+](=O)[O-] | 3.17 µM
6 | O=[N+]([O-])c1cc(C(F)(F)F)ccc1NCCc1c[nH]c2ccc(O)cc12 | 1.11 µM
7 | Oc1ccccc1-c1nnc(SCCN2CCOCC2)n1Cc1ccccc1 | 9.94 µM
8 | CC(C)(C)C(=O)C(Cl)C(=O)Nc1ccccc1 (configuration not stated) | 2.17 µM
9 | C[C@]12CCC3C(CC[C@H]4C[C@@H](O)CC[C@]34C)C1CC[C@@H]2OC(=O)[C@H](N)CCCCN (some centres not stated) | 11 µM
10 | O=C1CC(O)(C(F)(F)F)Oc2c1ccc1ccccc21 (configuration not stated) | 0.814 µM
11 | Cc1ccc(C)c(C(=O)O/N=C(\N)c2ccc(Br)cc2)c1 | 3.86 µM
12 | Cc1ccc([C@@H]2CC=C(C(=O)O)[C@H](c3ccc(Br)cc3)N2S(=O)(=O)c2ccccc2C)cc1 | 5.39 µM
13 | COc1ccc(C(=O)c2c(C(F)(F)F)oc3c2C(=O)c2ccccc2C3=O)cc1OC | 14.3 µM
14 | Cc1cc([N+](=O)[O-])cc(/C=N/n2c(C)nc3ccccc3c2=O)c1O | 4.24 µM
15 | Cc1ccc(S(=O)(=O)N/N=C\c2ccc([N+](=O)[O-])o2)cc1C | 10.5 µM
16 | CCCNC(=O)c1ccc2c(=O)c(O)c(-c3ccc(F)cc3)[nH]c2c1 | 2.31 µM
17 | O=C1Cc2ccccc2C(=O)N1CCc1ccccc1 | 10.5 µM
18 | COc1ccc(OC)c2c1C(=O)C(Cl)=C(Cl)C2=O | 0.66 µM
19 | CCn1c(=O)oc2cc(NC(=O)CCl)ccc21 | 18.2 µM
20 | O=C1c2ccccc2NC(c2ccc(-c3ccc(C(F)(F)F)cc3)o2)N1O (configuration not stated) | 1.71 µM
21 | N#C/C(=C\Nc1ccccc1O)c1nc2ccccc2o1 | 1.12 µM
22 | CC(C)(C)c1cc(CCC(=O)NNC(=S)NC(=O)c2ccccc2)cc(C(C)(C)C)c1O | 6.31 µM
23 | O=[N+]([O-])c1ccc(-c2nc(-c3cccs3)c(-c3cccs3)[nH]2)cc1 | 4.72 µM
24 | Cc1ccccc1OCC(O)Cn1c2ccccc2c2ccccc21 (configuration not stated) | 3.61 µM
25 | O=S(=O)(c1cc(C(F)(F)F)ccc1Cl)N1CCN(c2ncnc3ccccc23)CC1 | 17.1 µM
26 | Clc1ccc(OCc2nc(-c3ccncc3)no2)c(Br)c1 | 0.95 µM

Row | Compound | AC40
27 | C=CS(=O)(=O)c1sc(Cl)c(N2CCOCC2)c1[N+](=O)[O-] | 0.653 µM
28 | Cc1csc2nc(O)c(C(=O)NCCCc3ccccc3)c(=O)n12 | 0.801 µM
29 | CCOC(=O)c1ccc(NC(=O)CC2C(=O)OCCN2CC)cc1 (configuration not stated) | 4.89 µM
30 | Cc1cc(/C=C2\SC(=S)NC2=O)c(C)n1-c1cccc(O)c1 | 6.18 µM
31 | CN(C)S(=O)(=O)c1cccc(NC(=S)NNC(=O)c2cc3ccccc3cc2O)c1 | 1.27 µM
32 | Cc1cc(C(=O)N/N=C/c2ccc(O)c(O)c2O)c(C)n1-c1ccccc1 | 1.36 µM
33 | Cn1nc(C(F)(F)F)c(C#N)c1N1CCN(c2ccccc2)CC1 | 17.6 µM
34 | CCCC1CCC(c2ccc(/C(N)=N/O)cc2)CC1 (configuration not stated) | 0.476 µM
35 | N/C(Cc1ccc(Cl)cc1Cl)=N\OC(=O)c1ccc(Br)o1 | 0.746 µM
36 | COc1cc(C(=O)ON=C2C3CC4CC(C3)CC2C4)cc(OC)c1OC | 1.79 µM
37 | CC(C)c1cc(-c2cc(C(=O)NCc3ccccc3)on2)nc(NCC2CC2)n1 | 7.9 µM
38 | COC(=O)/C=C\C(=O)Nc1cccc([N+](=O)[O-])c1 | 2.17 µM
39 | CCN=c1scc(C)n1/N=C/c1ccc(O)c(O)c1O | 7.51 µM
40 | CC(NCCN(C)C)C1CCC2C3CCc4cc(O)ccc4C3CCC12C (configuration not stated) | 0.126 µM
41 | COc1ccccc1CNC(=O)CSc1ccc(-c2ccccn2)nn1 | 10.3 µM
42 | Cc1ccccc1OCc1nc2ccccc2n1C | 7.54 µM
43 | C=CCN(CC=C)C(=S)NC(=O)c1ccc(OC)c(Br)c1 | 0.652 µM
44 | CCN(CC)c1ccc(/C=N/NC(=O)c2c(Cl)cnn2C)c(O)c1 | 0.878 µM
45 | O=C(CSc1ccc(-c2ccccn2)nn1)NCc1ccccc1 | 7.08 µM
46 | O=C1Nc2c(Cl)cc(Cl)cc2C1=O | > 19.5 µM (inactive)
47 | O=C(CCc1ccccc1)NNC(=S)NC(=O)c1ccccc1 | 0.923 µM
48 | O=c1[nH]cc(F)c(=O)[nH]1 | 9.32 µM
49 | CCCC(=O)NC(c1ccccc1OC)c1ccc2cccnc2c1O (configuration not stated) | 1.2 µM
50 | COc1ccc(N(C(=O)c2ccncc2)S(=O)(=O)c2ccc(F)cc2)cc1 | 3.67 µM
51 | Cc1nnc(N=c2ssnc2Cl)o1 | 0.832 µM
52 | Cc1cccc(N2CCN(C(=O)C3CCCCC3)CC2)c1C | 19.3 µM
